Experimental findings from ChEMBL document CHEMBL1153914, “Synthesis, binding affinity and SAR of new benzolactam derivatives as dopamine D3 receptor ligands” (Bioorg Med Chem Lett, 2009) are described below.

A value given as a limit tells only on which side of the number the result lay.

Test [1] concerns the target T1, D(1A) dopamine receptor (Homo sapiens, UniProt P21728). In words: Displacement of [3H]SCH23390 from human dopamine D1 receptor at 10 uM. On the technique in general: Displacement assays read how much labelled ligand stays bound in the presence of the test substance.
Test [2] deals with T2, D(2) dopamine receptor (Homo sapiens, UniProt P14416). The test can be described thus: Displacement of [3H]spiperone from human dopamine D2 receptor.
T2 sequence (P14416 whole entry): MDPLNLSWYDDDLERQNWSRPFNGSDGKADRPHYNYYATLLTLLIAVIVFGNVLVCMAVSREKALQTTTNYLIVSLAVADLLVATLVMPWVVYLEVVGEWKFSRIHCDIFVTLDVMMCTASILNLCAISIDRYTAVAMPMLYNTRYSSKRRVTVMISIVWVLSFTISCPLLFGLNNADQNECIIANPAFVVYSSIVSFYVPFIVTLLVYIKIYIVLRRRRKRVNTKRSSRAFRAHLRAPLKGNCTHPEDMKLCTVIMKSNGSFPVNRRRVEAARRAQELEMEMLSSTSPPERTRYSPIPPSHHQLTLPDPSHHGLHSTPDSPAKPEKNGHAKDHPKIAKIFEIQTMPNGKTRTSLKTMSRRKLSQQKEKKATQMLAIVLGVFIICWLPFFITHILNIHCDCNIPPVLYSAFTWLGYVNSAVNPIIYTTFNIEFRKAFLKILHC
For another test, the target named is D(3) dopamine receptor (Homo sapiens, UniProt P35462). In words: Displacement of [3H]spiperone from human dopamine D3 receptor.
D(3) dopamine receptor, sequence (P35462 whole entry): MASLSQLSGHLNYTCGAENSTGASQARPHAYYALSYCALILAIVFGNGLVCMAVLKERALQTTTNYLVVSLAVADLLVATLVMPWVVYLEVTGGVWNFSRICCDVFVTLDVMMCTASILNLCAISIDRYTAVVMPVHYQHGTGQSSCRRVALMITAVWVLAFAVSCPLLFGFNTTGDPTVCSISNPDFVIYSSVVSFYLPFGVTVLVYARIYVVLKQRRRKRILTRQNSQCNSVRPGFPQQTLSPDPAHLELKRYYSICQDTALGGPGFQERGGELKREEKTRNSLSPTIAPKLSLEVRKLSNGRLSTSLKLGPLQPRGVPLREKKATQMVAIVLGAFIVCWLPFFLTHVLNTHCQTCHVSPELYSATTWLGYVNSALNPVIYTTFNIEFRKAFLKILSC
In test [3] the target is T2, D(2) dopamine receptor. The test can be described thus: Displacement of [3H]spiperone from human dopamine D2 receptor at 10 uM.
Test [4] addresses T1, D(1A) dopamine receptor. The test can be described thus: Displacement of [3H]SCH23390 from human dopamine D1 receptor.
The species named for the next test is Homo sapiens. The test can be described thus: Selectivity ratio of Ki for human dopamine D2 receptor to Ki for human dopamine D3 receptor.
Test [5] is described as follows: Selectivity for dopamine D3 receptor over dopamine D2 receptor.
Test [6] addresses 5-hydroxytryptamine receptor 2A (Homo sapiens, UniProt P28223). In words: Displacement of [3H]ketanserin from 5HT2A receptor.

T1 sequence (P21728 whole entry): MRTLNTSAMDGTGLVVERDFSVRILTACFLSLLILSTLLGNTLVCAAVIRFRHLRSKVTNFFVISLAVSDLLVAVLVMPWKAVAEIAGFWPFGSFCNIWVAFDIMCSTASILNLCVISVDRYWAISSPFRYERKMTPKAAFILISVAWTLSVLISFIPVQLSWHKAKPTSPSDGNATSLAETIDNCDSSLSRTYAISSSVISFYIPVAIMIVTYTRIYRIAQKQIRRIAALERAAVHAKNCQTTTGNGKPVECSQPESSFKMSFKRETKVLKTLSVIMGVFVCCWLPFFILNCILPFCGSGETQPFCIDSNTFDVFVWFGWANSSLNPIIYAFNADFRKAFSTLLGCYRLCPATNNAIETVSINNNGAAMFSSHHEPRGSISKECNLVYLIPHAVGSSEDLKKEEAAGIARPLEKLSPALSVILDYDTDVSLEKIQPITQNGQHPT
5-hydroxytryptamine receptor 2A, sequence (P28223 whole entry): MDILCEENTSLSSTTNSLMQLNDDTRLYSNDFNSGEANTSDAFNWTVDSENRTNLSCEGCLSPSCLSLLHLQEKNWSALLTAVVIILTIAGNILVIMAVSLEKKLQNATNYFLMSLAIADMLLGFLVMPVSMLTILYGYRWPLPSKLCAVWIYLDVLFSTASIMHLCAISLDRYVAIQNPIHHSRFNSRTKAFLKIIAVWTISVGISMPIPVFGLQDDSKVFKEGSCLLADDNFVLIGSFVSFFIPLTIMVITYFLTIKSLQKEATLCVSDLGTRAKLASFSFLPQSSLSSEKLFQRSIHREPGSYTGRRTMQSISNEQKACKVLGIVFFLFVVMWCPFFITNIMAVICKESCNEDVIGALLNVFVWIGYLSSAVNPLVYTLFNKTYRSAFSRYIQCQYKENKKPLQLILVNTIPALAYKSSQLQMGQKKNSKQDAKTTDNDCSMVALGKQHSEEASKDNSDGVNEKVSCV

`COc1ccc(N2CCN(CCCN3CCCc4ccccc4C3=O)CC2)cc1`: the Activity on D(1A) dopamine receptor [1] was 42.8%; at D(2) dopamine receptor [3], 1.1%. For the same compound, the Ki was above 100000 nM on D(2) dopamine receptor [2] and 1100 nM on D(3) dopamine receptor (read-out: pKi (converted)).

Consider `COc1ccc(N2CCN(CCCCN3CCc4ccccc4C3=O)CC2)cc1`, for which the results for the Activity on D(1A) dopamine receptor [1] and at D(2) dopamine receptor [3] were 34.2% and 33.2%, respectively. Also, the Ki on D(3) dopamine receptor (read-out: pKi (converted)) is 490 nM.

On to `O=C1c2ccccc2CCN1CCCCN1CCN(c2ccccc2Cl)CC1`, for which the Ki is 347 nM at D(1A) dopamine receptor [4], 35.5 nM at D(2) dopamine receptor [2] and 6.76 nM on D(3) dopamine receptor (read-out: pKi (converted)). Besides, the Ratio Ki in the test filed under Homo sapiens is 5.2.

For the compound `COc1ccccc1N1CCN(CCCN2CCCc3ccccc3C2=O)CC1`, the Ki on D(1A) dopamine receptor [4] was 2510 nM; on D(2) dopamine receptor [2], 794 nM; at D(3) dopamine receptor (read-out: pKi (converted)), 209 nM.

As to `COc1ccccc1N1CCN(CCCCCN2CCc3ccccc3C2=O)CC1`, the results for the Ki at D(1A) dopamine receptor [4], at D(2) dopamine receptor [2] and on D(3) dopamine receptor (read-out: pKi (converted)) were 977 nM, 20.4 nM and 32.4 nM, respectively.

For `O=C1c2ccccc2CCN1CCCN1CCN(c2cccc(Cl)c2Cl)CC1`, the figures for the Ki on D(1A) dopamine receptor [4] and on D(3) dopamine receptor (read-out: pKi (converted)) were 1450 nM and 209 nM, respectively. For the same compound, the Activity at D(2) dopamine receptor [3] turned out to be 59.9%.

As to `COc1ccccc1N1CCN(CCCN2CCc3ccccc3C2=O)CC1`, the results for the Activity on D(1A) dopamine receptor [1] and at D(2) dopamine receptor [3] were 59.5% and 50.4%, respectively. The Ki on D(3) dopamine receptor (read-out: pKi (converted)) was 1580 nM.

Turning to `O=C(NCCCCN1CCN(c2cccc(Cl)c2Cl)CC1)c1cc2ccccc2s1`, the Selectivity ratio in test [5] was 7200.

Turning to `O=C1c2ccccc2CCCN1CCCN1CCN(c2ccccn2)CC1`, the values for the Activity at D(1A) dopamine receptor [1] and on D(2) dopamine receptor [3] were 57% and 26.3%, respectively. In addition, at D(3) dopamine receptor (read-out: pKi (converted)), the Ki was 4170 nM.

With `O=C1c2ccccc2CCCN1CCCCN1CCN(c2ccccn2)CC1`, the Ki at D(1A) dopamine receptor [4] is 282 nM; at D(2) dopamine receptor [2], 229 nM; at D(3) dopamine receptor (read-out: pKi (converted)) it was 398 nM.

Take `O=C1c2ccccc2CCCN1CCCN1CCN(c2cccc(Cl)c2Cl)CC1`: the Ki is 2400 nM at D(1A) dopamine receptor [4], 219 nM at D(2) dopamine receptor [2] and 389 nM on D(3) dopamine receptor (read-out: pKi (converted)).

Take `O=C1c2ccccc2CCN1CCCCN1CCN(c2cccc(Cl)c2Cl)CC1`: the values for the Ki at D(1A) dopamine receptor [4], on D(2) dopamine receptor [2] and at D(3) dopamine receptor (read-out: pKi (converted)) were 1780 nM, 11.5 nM and 162 nM, respectively.

Regarding `COc1ccc(N2CCN(CCCN3CCCCc4ccccc4C3=O)CC2)cc1`, the Activity at D(1A) dopamine receptor [1] is 58.9%; on D(2) dopamine receptor [3], 13.1%. Further, the Ki on D(3) dopamine receptor (read-out: pKi (converted)) was 8910 nM.

For the compound `O=C1c2ccccc2CCCN1CCCCN1CCN(c2ncccn2)CC1`, the values for the Ki on D(1A) dopamine receptor [4], on D(2) dopamine receptor [2] and on D(3) dopamine receptor (read-out: pKi (converted)) were 8710 nM, 151 nM and 631 nM, respectively.

With `COc1cccc(N2CCN(CCCCN3CCc4ccccc4C3=O)CC2)c1`, the Ki is 427 nM at D(1A) dopamine receptor [4], 158 nM at D(2) dopamine receptor [2] and 40.7 nM on D(3) dopamine receptor (read-out: pKi (converted)).

For `O=C1c2ccccc2CCCN1CCCN1CCN(c2cccc(C(F)(F)F)c2)CC1`, the Ki was 4900 nM at D(1A) dopamine receptor [4] and 1050 nM at D(3) dopamine receptor (read-out: pKi (converted)). Besides, on D(2) dopamine receptor [3], the Activity came out at 55.5%.

In the case of `COc1ccc(N2CCN(CCCCN3CCCc4ccccc4C3=O)CC2)cc1`, the Activity on D(1A) dopamine receptor [1] was found to be 47.5%; at D(2) dopamine receptor [3] it was 59%. Moreover, the Ki on D(3) dopamine receptor (read-out: Ki) came out at 40 nM.

For `O=C1c2ccccc2CCN1CCCN1CCN(c2cccc(C(F)(F)F)c2)CC1`, the Ki at D(1A) dopamine receptor [4] is 1740 nM; on D(3) dopamine receptor (read-out: pKi (converted)), 2400 nM. For the same compound, the Activity on D(2) dopamine receptor [3] was determined as 52.4%.

For the compound `O=C1c2ccccc2CCN1CCCN1CCN(c2ccccn2)CC1`, the values for the Ki at D(1A) dopamine receptor [4] and on D(3) dopamine receptor (read-out: pKi (converted)) were 1700 nM and 8320 nM, respectively. At D(2) dopamine receptor [3], this compound returned an Activity of 12.4%.

As for `COc1ccc(N2CCN(CCCN3CCc4ccccc4C3=O)CC2)cc1`, the Activity at D(1A) dopamine receptor [1] was determined as 43.5%; at D(2) dopamine receptor [3] it was 1.35%. Further, the Ki at D(3) dopamine receptor (read-out: pKi (converted)) is 10000 nM.

In the case of `O=C1c2ccccc2CCN1CCCN1CCN(c2ncccn2)CC1`, the figures for the Activity on D(1A) dopamine receptor [1] and on D(2) dopamine receptor [3] were 40.8% and 0.36%, respectively. Further, on D(3) dopamine receptor (read-out: pKi (converted)), the Ki was 24500 nM.

With `O=C1c2ccccc2CCN1CCCCN1CCN(c2ccccn2)CC1`, the Ki at D(1A) dopamine receptor [4] is 2040 nM. The compound further showed an Activity at D(2) dopamine receptor [3] of 57.5%.

For `O=C1c2ccccc2CCN1CCCCN1CCN(c2ncccn2)CC1`, the Activity at D(1A) dopamine receptor [1] came to 31.6%; at D(2) dopamine receptor [3] it was 60.5%. Further, the Ki at D(3) dopamine receptor (read-out: pKi (converted)) was 1510 nM.

For the compound `O=C1c2ccccc2CCCN1CCCCN1CCN(c2cccc(Cl)c2Cl)CC1`, the Ki in test [6] is 10 nM; at D(1A) dopamine receptor [4], 1740 nM; on D(2) dopamine receptor [2], 36.3 nM; at D(3) dopamine receptor (read-out: pKi (converted)) it was 14.5 nM. Moreover, in the test filed under Homo sapiens, the Ratio Ki was determined as 2.5.

Consider `COc1ccccc1N1CCN(CCCCN2CCCc3ccccc3C2=O)CC1`, for which the Ki was 2690 nM on D(1A) dopamine receptor [4], 3.63 nM on D(2) dopamine receptor [2] and 1.58 nM on D(3) dopamine receptor (read-out: pKi (converted)). Further, the Ratio Ki in the test listed under Homo sapiens was 2.2.

In the case of `O=C1c2ccccc2CCCN1CCCN1CCN(c2ncccn2)CC1`, the Activity is 46% on D(1A) dopamine receptor [1] and 36.4% on D(2) dopamine receptor [3]. Further, the Ki at D(3) dopamine receptor (read-out: pKi (converted)) was 8320 nM.

Regarding `COc1ccccc1N1CCN(CCCCN2CCc3ccccc3C2=O)CC1`, the Activity at D(1A) dopamine receptor [1] stood at 61.1%. The compound further had a Ki on D(2) dopamine receptor [2] of 12.3 nM.
